# Patent US20130344140A1, “NOVEL PHARMACEUTICAL COMBINATIONS AND METHODS FOR TREATING CANCER” (Agency for Science, Technology and Research, priority 2011, published 2013)
# Experiments:
# Format in all cases: cell-based
# A375 and HCT116 p53+/+ = test: Annexin V apoptosis assay, p53-positive cell lines; details: various concentrations of VX-680
# Protocol: (§2) Cells were then harvested and stained for annexin V to detect apoptotic cells.
# (§3) For analysis of apoptosis, cells were harvested without fixation. Apoptosis was evaluated using the annexin V (fluorescein isothiocyanate (FITC))-propidium iodide binding assay (Roche, Indianapolis, Ind., USA). The extent of apoptosis was quantified as a percentage of annexin V-positive cells over the total cell population. Flow cytometric analysis was performed on a BD LSR II System (BD Biosciences, Stockholm, Sweden). Data were analyzed using FlowJo software and ModFit LT (Verity Software House, Topsham, Me., USA).
# HCT116 p53−/− cells = test: Cell cycle analysis of HCT116 p53−/− cells (nutlin-3, VX-680); details: 200 nM VX-680, later time points (40 and 48 h), compared with p53+/+
# Protocol: (a) is a comparison of the DNA profiles of P53+/+ and p53−/− cells after treatment with VX-680. HCT116 p53+/+ and p53−/− cells were incubated with 200 nM VX-680 and cells were harvested at the indicated time points for analysis of cell cycle distribution.
# (b) is a comparison of the DNA profiles of p53+/+ and p53−/− cells with pre-treatment of Nutlin before incubation with VX-680.
# [1] = tested on: cyclins A2 and B1 in A549 cells; test: Western blot of cell cycle-related proteins after VX-680 treatment; details: A549, VX-680 time course
# Protocol: (c) is a series of western blots showing the comparison of expression levels of cell cycle-related proteins (Rb, cdc2, Cdk2, cyclin A2, cyclin E1 and cyclin B1) and p53-dependent gene products (MDM2 and p21) at the indicated time points after VX-680 treatment. Downregulation of mitotic cyclins A and B and upregulation of p53-dependent genes p21 and MDM2 correlate with the activation of p53.
# (§1) For western blotting, cell extracts were prepared using NP-40 lysis buffer (50 mM Tris-HCl (pH 8.0), 150 mM NaCl, 1% NP-40, 5 mM EDTA supplemented with protease and phosphatase inhibitor cocktails (Sigma).
# p53, p21, MDM2 and PUMA = test: Accumulation of p53 and p53-dependent gene products in response to VX-680 (western blot, transcript levels); details: cells treated with VX-680 (FIG. 8A)
# Protocol: (A) Western blots show the accumulation of p53, p21, MDM2 and PUMA proteins. Graphs below represent the quantification of the corresponding transcript levels of the proteins.
# as §1
# Total RNA was isolated using the RNeasy kit (Qiagen, Valencia, Calif., USA). The RNA was quantified using spectrophotometric analysis and used for quantitative real-time PCR. The primers used for each target analyzed are available on request. The RNA Master Power SYBR Green Mix (Roche) was used for quantification of mRNA levels.
# [2] = tested on: A549 cells transfected with p53-specific siRNA; test: Cell cycle analysis of A549 cells transfected with p53 siRNA and exposed to VX-680; details: A549 with p53 siRNA knockdown, exposed to VX-680
# Protocol: (B) Extent of endoreduplication is exacerbated in cells with compromised p53 functions. A549 cells transfected with p53 siRNA (Dharmacon pool) were incubated with VX-680 (200 nM) for the indicated time periods after transfection. […] DNA-dependent cell cycle analysis was performed using flow cytometry.
# p53 siRNA oligo 1 (p53si) 5′-[…] GCGUCUU-3′ (SEQ ID NO: 9), cyclin A2 siRNA 5′-[…]-3′ (SEQ ID NO: 10) and cyclin B1 siRNA 5′-[…]-3′ were from Dharmacon (Lafayette, Colo., USA) (SEQ ID NO:11). Cells were plated in six-well dishes overnight in antibiotic-free media. Cells were incubated with Optimen (GIBCO) for an hour before transfection using Lipofectamine 2000 (Invitrogen) and siRNA (30 nM) according to the manufacturer's recommendation. Cells were either harvested at 48 h after transfection or incubated with VX-680 for another 48 h before analysis.
# A549 cells [3] = test: Time course of cell cycle distribution of A549 cells incubated with VX-680; details: A549, 200 nM VX-680, after 48 h
# Protocol: After 48 h, more than 35% of cells were arrested in tetraploid G2/M (8N) (FIG. 2a). […] Together, the results confirmed that the 8N cells were arrested predominantly in G2 and VX-680 inhibited mitosis in part through a G2 checkpoint.
# [4] = tested on: Cdk/cyclin kinase activities (Cdk2, cdc2, cyclins A2 and B1) in A549 cells; test: Cdk/cyclin kinase activities after incubation with VX-680 (immunoprecipitation, histone H1 kinase assay); details: A549, VX-680 time course
# Protocol: (b) is a series of western blots showing the kinetics of Kinetics of Cdk/cyclin kinase activities after incubation with VX-680. Cdk/cyclin kinase activities were assayed in vitro (refer to Materials and Methods in Examples). Cdk2, cyclins A and B1 were immunoprecipitated from cell lysates using specific antibodies followed by in vitro kinase assays using histone H1 as a substrate. Suc1 is used to capture Cdk1 and Cdk2 complexes by protein pull down as described in Materials and Methods. […]
# The immunoprecipitated beads were resuspended in 5 μl of EB buffer, 10 mM DTT and 20 to […]. […] After electrophoresis on 12.5% polyacrylamide gels, phosphorylation was analyzed by autoradiography and quantified by phosphorimage analysis.
# ATM = ATM / DNA damage checkpoint dependence of VX-680-induced G2 arrest (western blot, DNA FACS profiles)
# Protocol: as §1
# A549 cells [5] = test: Mitotic index of A549 cells exposed to VX-680; details: A549, VX-680 200 nM
# Protocol: (B) is a graph showing the Mitotic index of A549 cells exposed to VX-680. A549 cells were incubated with VX-680 (200 nM) and the mitotic cells were counted and expressed as a percentage of total cells count. To aid visualization of the condensed chromosomes, H2B-GFP was expressed in A549. Each data point represents the mean±SD (n=3).
# [6] = tested on: MDA-MB 468 and HCT116 p53−/−; test: Annexin V apoptosis assay, p53-compromised cell lines; details: various concentrations of VX-680; MDA-MB 468 and HCT116 p53−/−
# Protocol: as §2, §3
smiles,measurement,setting,value
"Cc1cc(Nc2cc(N3CCN(C)CC3)nc(Sc3ccc(NC(=O)C4CC4)cc3)n2)[nH]n1 [VX-680, cyclopropane carboxylic acid of {4-[4-(4-methyl-piperazin-1-yl)-6-(5-methyl-2H-pyrazol-3-ylamino)-pyrimidin-2-ylsulphanyl]-phenyl}-amide]",apoptosis (annexin V),A375 and HCT116 p53+/+,underwent apoptosis
same,endoreduplication,HCT116 p53−/− cells,Increased endoreduplication
same,protein levels of cyclins A2 and B1,[1],timedependent decrease
same,p53 activation,"p53, p21, MDM2 and PUMA",p53 was activated
same,"p53 target genes p21, PUMA and MDM2","p53, p21, MDM2 and PUMA",all upregulated
same,cells with 16n DNA content,[2],> 15%
same,cells arrested in tetraploid G2/M (8N),A549 cells [3],more than 35%
same,Cdk2 and cdc2 kinase activities,[4],markedly reduced to undetectable levels
same,cyclins A2- and B1-associated kinase activities,[4],rapid reduction
same,p53 phosphorylation on Ser15,ATM; VX-680-treated cells,without detectable phosphorylation on Ser15
same,activation of ATM (Ser1981 phosphorylation),ATM; low concentrations of VX-680,did not induce activation of ATM
same,time at which the mitotic index peaked,A549 cells [5]; after treatment,16 h
same,mitotic index,A549 cells [5]; at 48 h,2%
same,apoptosis (annexin V),[6],underwent apoptosis
